From PMC5570288, “Hot-spot identification on a broad class of proteins and RNA suggest unifying principles of molecular recognition” (PLoS ONE, 2017) come the findings set out here.

This assay concerns the target T1, RecA (Escherichia coli, UniProt P0A7G6).
T1 construct: assay 'as previously described'; homo-oligomer
In words: coupled ATPase assay, ADP to H2O2, amplex red / resorufin fluorescence. Type of assay: biochemical.

T1 sequence (P0A7G6 2-353): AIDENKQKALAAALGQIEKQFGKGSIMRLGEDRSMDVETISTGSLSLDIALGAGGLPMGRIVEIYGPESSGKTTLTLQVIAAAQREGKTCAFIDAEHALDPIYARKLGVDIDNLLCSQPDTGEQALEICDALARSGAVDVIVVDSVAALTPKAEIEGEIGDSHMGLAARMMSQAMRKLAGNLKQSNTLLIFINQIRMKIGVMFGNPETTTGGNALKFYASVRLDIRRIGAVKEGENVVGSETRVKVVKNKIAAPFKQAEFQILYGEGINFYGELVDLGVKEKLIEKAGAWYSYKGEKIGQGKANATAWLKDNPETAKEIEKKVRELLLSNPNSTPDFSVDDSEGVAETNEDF

In turn, `NCCc1cc(O)c(O)cc1O` [6-hydroxydopamine] came in with an IC50 of 23 µM.
